Entries after “also recorded” stand apart in the source; their conditions may differ. Where two headings read alike, the source gives them in different places.
T1: cleaved, non-shed MUC1-C (Homo sapiens, UniProt P15941)
T1 construct: expressed in transfected cells; host or cells: K562, Raji and RPMI8226 cells modified to express MUC1-C
T1 sequence (P15941 with tags, fused parts or gaps): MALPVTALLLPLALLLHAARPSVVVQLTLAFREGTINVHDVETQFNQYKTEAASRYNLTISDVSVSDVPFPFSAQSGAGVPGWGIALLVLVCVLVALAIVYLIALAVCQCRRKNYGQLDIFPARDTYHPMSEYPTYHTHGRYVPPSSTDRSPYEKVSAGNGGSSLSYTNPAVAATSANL


Experiments:
[1] = system: cells; assay: AP1903 amount needed in vitro for effective signaling of cells; type: cell-based; settings: conversion with 1600 Da MW
Description: The fixed dose of AP1903 for injection used, for example, may be 0.4 mg/kg intravenously infused over 2 hours. The amount of AP1903 needed in vitro for effective signaling of cells is 10-100 nM (1600 Da MW). This equates to 16-160 μg/L or ^˜0.016-1.6 μg/kg (1.6-160 μg/kg). Doses up to 1 mg/kg were well-tolerated in the Phase I study of AP1903 described above. Therefore, 0.4 mg/kg may be a safe and effective dose of AP1903 for this Phase I study in combination with the therapeutic cells.

[2] = system: Human pan T-cells; assay: iC9 safety switch test: modified T cells incubated 24 hours with AP1903, viability by 7-AAD flow cytometry; type: cell-based; settings: 24 hours incubation, 0-1000 nM tested
Description: FIG. 7 is a series of flow cytometry plots depicting the abundance of cells moving from an area of live cells (the gated lower right quadrant) to an area populated by apoptotic cells (the upper left quadrant) as a function of increasing dosage of the induction agent (AP1903) in cells modified to express a therapeutic agent (a CARTyrin) alone or in combination with an inducible caspase polypeptide of the disclosure (encoded by an iC9 construct (also known as a “safety switch”) introduced into cells by a piggyBac (PB) transposase) at day 12 post nucleofection. […]
FIG. 9 is a pair of graphs depicting a quantification of the aggregated results shown either in FIG. 7 (left graph) or FIG. 8 (right graph). […]
To test the iC9 safety switch, each of the four modified T cells were incubated for 24 hours with 0, 0.1 nM, 1 nM, 10 nM, 100 nM or 1000 nM AP1903 (an induction agent for […]). Viability was assessed by flow cytometry using 7-aminoactinomycin D (7-AAD), a fluorescent intercalator, as a marker for cells undergoing apoptosis.

[3] = system: cells; settings: cited from earlier work
[4] = cited from earlier work
[5] = target: T1, cleaved, non-shed MUC1-C; assay: MUC1-scFv CAR function/epitope assay (degranulation, CD107a+ cells); type: cell-based; settings: cells that received the extracellular MUC1-C construct
Description: (§1) FIG. 14 is a graph depicting a MUC1-scFv CAR function assay. […] MUC1-scFv function is measured by the extent of degranulation of the cells in each condition contacted with the MUC1-scFv along the X-axis. Degranulation was measured as the percentage of total cells that were CD107a-positive (CD107a+).
(§2) The results of a functional assay are provided in the graph wherein MUC1-C scFv-CAR function was measured by the extent of degranulation of the cells in each condition contacted with the MUC1-scFv along the X-axis. Degranulation was measured as the percentage of total cells that were CD107a-positive (CD107a+). The chart summarizes the relative activity of each MUC1-C scFv-CAR during the functional assay.
(§3) The function of each of the MUC1-scFv CARs described in this example was assayed in K562 cells, Raji cells and RPMI8226 cells (“8226”) cells in either unmodified conditions or following transfection with MUC1 constructs (either full-length or MUC1-C) to generate modified K562 cells, modified Raji cells and modified 8226 cells. Function of each of the MUC1-scFv CARs was measured by the CAR's ability to degranulate each cell type. Degranulation was measured by the percent of total cells that express […] (percentage of […] cells).
(§4) The F1C-HL, M1A-LH and K2B-HL MUC1-scFv CARs were further tested to determine epitope binding.

[6] = target: T2, full length MUC1 (Homo sapiens, UniProt P15941); assay: as above; type: cell-based; settings: cells expressing full-length MUC1
T2 construct: expressed in transfected cells; host or cells: K562, Raji and RPMI8226 cells
T2 sequence (P15941 24-1255): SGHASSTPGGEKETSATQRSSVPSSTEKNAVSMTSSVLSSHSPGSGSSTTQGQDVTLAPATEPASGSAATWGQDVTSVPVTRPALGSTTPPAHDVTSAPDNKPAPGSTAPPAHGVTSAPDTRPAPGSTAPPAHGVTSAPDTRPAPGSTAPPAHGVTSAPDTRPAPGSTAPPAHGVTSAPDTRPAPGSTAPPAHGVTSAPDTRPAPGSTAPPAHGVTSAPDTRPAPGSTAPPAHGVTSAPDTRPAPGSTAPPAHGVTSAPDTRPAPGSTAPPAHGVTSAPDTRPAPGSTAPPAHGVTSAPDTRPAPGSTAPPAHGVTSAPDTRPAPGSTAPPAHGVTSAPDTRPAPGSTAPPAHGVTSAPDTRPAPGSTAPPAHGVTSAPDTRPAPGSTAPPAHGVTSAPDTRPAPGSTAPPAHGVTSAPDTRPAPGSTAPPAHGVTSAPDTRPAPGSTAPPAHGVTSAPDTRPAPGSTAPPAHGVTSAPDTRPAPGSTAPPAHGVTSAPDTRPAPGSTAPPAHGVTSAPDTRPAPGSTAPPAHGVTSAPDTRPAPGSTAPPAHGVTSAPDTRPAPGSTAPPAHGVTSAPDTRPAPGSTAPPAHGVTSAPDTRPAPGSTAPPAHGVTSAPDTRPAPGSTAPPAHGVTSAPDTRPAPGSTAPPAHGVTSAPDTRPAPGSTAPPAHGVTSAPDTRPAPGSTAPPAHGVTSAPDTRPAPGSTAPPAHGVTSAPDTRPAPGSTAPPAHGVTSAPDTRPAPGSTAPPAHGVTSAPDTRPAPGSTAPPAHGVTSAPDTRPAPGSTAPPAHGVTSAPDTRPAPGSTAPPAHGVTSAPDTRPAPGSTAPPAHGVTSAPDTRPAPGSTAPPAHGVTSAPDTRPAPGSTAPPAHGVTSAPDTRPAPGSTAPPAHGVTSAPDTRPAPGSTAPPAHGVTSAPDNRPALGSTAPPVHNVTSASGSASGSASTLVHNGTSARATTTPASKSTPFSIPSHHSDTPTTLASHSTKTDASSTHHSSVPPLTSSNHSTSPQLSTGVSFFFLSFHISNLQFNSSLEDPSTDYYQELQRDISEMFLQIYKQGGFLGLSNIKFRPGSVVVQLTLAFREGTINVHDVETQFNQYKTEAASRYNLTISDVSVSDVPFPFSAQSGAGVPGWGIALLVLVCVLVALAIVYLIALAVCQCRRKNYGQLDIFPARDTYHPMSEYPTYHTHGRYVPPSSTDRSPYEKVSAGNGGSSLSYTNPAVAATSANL
Description: as §1, §2, §3, §4

[7] = system: MUC1 expressed on activated T cells; assay: as above; type: cell-based, human
Description: as §2
As an initial study, MUC1 expression was assessed in different cell types (see FIG. 13). Cells included in this study: K562 cells (immortalized human chronic myelogenous leukemia cells), Raji cells (human hematopoietic cell line used as a model of cancer), Raji cells modified to express MUC1-C, activated T cells and RPMI8226 cells (human peripheral blood B cell plasmacytoma/myeloma cell line). MUC1 expression in each of these cells was assessed by staining with an anti-MUC1-N antibody.

[8] = system: unmodified cells; assay: as above; type: cell-based, human
Description: as §3, §4

Molecule | amount needed for effective signaling of cells, converted [1] | amount needed for effective signaling of cells, converted to dose [1] | concentration at which AP1903 induces apoptosis (lowest of the study) [2] | amount needed in vitro for effective signaling of cells [3] | AP1903 plasma levels versus dose ([4]; 0.01-1.0 mg/kg dose range) | plasma levels as % of maximal concentration ([4]; 0.5 hours post-dose) | plasma levels as % of maximal concentration ([4]; 2 hours post-dose) | plasma levels as % of maximal concentration ([4]; 10 hours post-dose) | well-tolerated doses ([4]; Phase I study of AP1903) | mean Cmax ([4]; single doses 0.01-1.0 mg/kg infused IV over 2 hours, 24 healthy volunteers, plasma) | CAR reactivity / binding (degranulation) [5] | CAR reactivity / binding (degranulation) [6] | CAR reactivity (degranulation) [7] | CAR binding (degranulation) [8]
CC[C@H](C(=O)N1CCCC[C@H]1C(=O)O[C@H](CCc1ccc(OC)c(OC)c1)c1cccc(OCC(=O)NCCNC(=O)COc2cccc([C@@H](CCc3ccc(OC)c(OC)c3)OC(=O)[C@@H]3CCCCN3C(=O)[C@@H](CC)c3cc(OC)c(OC)c(OC)c3)c2)c1)c1cc(OC)c(OC)c(OC)c1 (relative stereo) [AP1903, 2-Piperidinecarboxylic acid, 1-[(2S)-1-oxo-2-(3,4,5-trimethoxyphenyl)butyl]−, 1,2-ethanediylbis[imino(2-oxo-2,1-ethanediyl)oxy-3,1-phenylene[(1R)-3-(3,4-dimethoxyphenyl)propylidene]]ester, [2S-[1(R*),2R*[S*[S*[1 (R*),2R*]]]]]-(9C1)] | 16 to 160 µg/L | 0.016 to 1.6 µg/kg | ≤ 0.1 nM | 10 to 100 nM | directly proportional to dose | approximately 18% | ~7% | ~1% | up to 1 mg/kg | 10 to 1275 ng/mL |  |  |  | 
F1C-HL: MUC1 scFv CAR; single chain antibody SEQ ID NO: 22 (protein, left off: a dimerising Fc or GST) scFv: QITLKESGPGILQPSQTLSLTCSFSGFSLSTSGMGVSWIRQPSGKGLEWLSHIYWDDDKRYNPSLKSRLSISKDTSRNQVFLKITSVDTADTATYYCAPGVSSWFPYWGPGTLVTVSAGGGGSGGGGSGGGGSSIVMTQTPKFLPVSAGDRVTVTCKASQSVGNYVAWYQQKPGQSPKLLIYFASNRYSGVPDRFTGSGSGTDFTFTISSVQVEDLAVYFCQQHYIFPYTFGSGTKLEIK |  |  |  |  |  |  |  |  |  |  | binds | reacts against full length MUC1; also recorded: binds | including that expressed on activated T cells | binds
K2B-HL: MUC1 scFv CAR; single chain antibody SEQ ID NO: 10 (protein, left off: a dimerising Fc or GST) scFv: QVQLKESGPGLVAPSQSLSMTCTVSGFSLTTYGVHWVRQPPGKGLEWLVVIWSDGSTTYNSPLKSRLSISRDNSKSQVFLKMNSLQADDTAIYYCAKNYLGSLDYWGQGTSVTVSSGGGGSGGGGSGGGGSDVVLTQTPLSLPVSLGDQASISCRSSQSLVHNNGDTYLHWYLQKPGQSPKLLIYKVSNRFSGVPDRFSGSGSGTDFTFKISRVEAEDLGVYFCSQTTHVPLTFGAGTKLELK |  |  |  |  |  |  |  |  |  |  | only reacts against cleaved, non-shed MUC1-C; also recorded: specifically binds | not full length MUC1 |  | 
